In patent publication US9045490B2, “Use of parthenolide derivatives as antileukemic and cytotoxic agents” (University of Kentucky, priority 2003, dated 2015):
Where two headings read alike, the source gives them in different places.

Legend:
[1] = system: breast cancer cell line mdl-231; test: Clonogenic assay; type: cell-based; conditions: mdl-231, 2 μm concentration (parthenolide: similar dosage ranges)
[2] = system: primary acute myelogenous leukemia (AML) cells; test: Assay for antileukemic activity (Annexin V/7-AAD apoptosis analysis by flow cytometry); type: cell-based; conditions: 24 hours of culture
Experimental: For apoptosis analysis, one million primary acute myelogenous leukemia (AML) cells were washed with cold PBS and resuspended in 200 microliters of Annexin binding buffer (10 mM HEPES/NaOH pH 7.4; 140 mM NaCl; 2.5 mM CaCl2). Annexin V-FITC (Pharmingen) and 0.25 mg/mL 7-AAD (7-aminoactinomycin D, Molecular Probes, CA) were added and the tubes were incubated at room temperature in the dark for 15 minutes. Cells were then diluted with 200 microliters of Annexin binding buffer and analyzed immediately by flow cytometry. Viable cells were identified as failing to label with Annexin V or 7-AAD. Cells beginning to die label with Annexin V, and as membrane integrity is lost, will also label with 7-AAD. […] Data are normalized to untreated control specimens. The data are in Table 1 for aminoparthenolide derivatives and Table 2 for the salts of some aminoparthenolides.

[3] = system: AML cells (AML stem cell compartment); test: Human-mouse xenograft: NOD/SCID engraftment of AML cells treated in vitro; type: in vivo, human cells in NOD/SCID mice; conditions: 7.5 micromolar in vitro for 12-18 hours, bone marrow analysed after 6-8 weeks (CD45)
Experimental: (§1) To assess the effect of parthenolide on primary human stem cell populations, experiments were conducted using transplantation into immune deficient NOD/SCID mice. […] For each experiment, cryopreserved mononuclear cell specimens from normal or AML donors were thawed, and treated in vitro with 7.5 micromolar parthenolide for 12-18 hours. Following culture, 5-10 million cells/animal were injected intravenously into sublethally irradiated (300 Rad) NOD/SCID mice. After 6-8 weeks, animals were sacrificed and bone marrow was analyzed for the presence of human cells using flow cytometry as previously described (Guzman et al., Proc Natl Acad Sci USA 2002; 99: 16220-162253). Human specific antibodies for CD45 were used to assess the level of total engraftment.

[4] = Oral bioavailability in mice: plasma level by LC-MS; type: in vivo; conditions: mouse, 40 mg/kg oral, read-out: plasma level one hour after oral gavage
Experimental: Preliminary in vivo work was conducted to determine the bioavailability and toxicity of this agent in mice.

[5] = system: normal hematopoietic stem cells; test: Human-mouse xenograft: NOD/SCID engraftment of normal donor cells treated in vitro; type: in vivo; conditions: 7.5 micromolar in vitro for 12-18 hours, bone marrow analysed after 6-8 weeks (CD45)
Experimental: as §1

With C/C1=C\CC[C@@]2(C)O[C@@H]2[C@H]2OC(=O)[C@H](CN(C)C)[C@@H]2CC1 [DMAPT, 11S,11,13-Dihydro,13-dimethylaminoparthenolide] the inhibition of proliferation [1] was “almost complete inhibition”, the Antileukemic activity ([2]; 5 μM) was 5 μM, 31% and the Antileukemic activity ([2]; 10 μM, normalized to untreated control) was 10 μM, 90%. For the same compound, the Antileukemic activity ([2]; 20 μM) was 20 μM, 95%, the “level of engraftment of treated AML cells in NOD/SCID mice” value [3] was “strong reduction” and the concentration at 1 h ([4]; LC-MS, average of 5 mice) was ~2500 ng/mL. For the same compound, the concentration at 1 h ([4]; conversion of the ng/mL value) was 8 µM and the “level of engraftment of treated normal cells in NOD/SCID mice” value [5] was “no significant effects”.
